Data reported in patent publication US8168596B2, “Use of cycloartane compounds for treating arthritis” (NuLiv Holding Inc., priority 2008, dated 2012).

Tested on: MMP1 mRNA
Assay: RT-PCR of MMP1 mRNA expression in SW1353 cells
Type: cell-based, human
Conditions: for MMP1 mRNA expression after AS4 treatment followed by PMA: then 100 ng/mL PMA 24 h; for MMP1 mRNA expression after only AS4 treatment: 24 h, no PMA
Description: First of all, the interaction between TIMP1 mRNA expression and MMP1 mRNA expression in human SW1353 cell line after only AS4 treatment was studied. […] The SW1353 cells were then collected for RT-PCR analysis.
In a second testing, the effect of AS4 treatment followed by PMA treatment was also studied. The SW1353 cells were first treated with astragaloside IV (AS4) at a concentration of 0.01 μM, 0.1 μM, or 1 μM, followed by incubation for 24 hours. Then PMA was added into each well, followed by incubation for 24 hours. These SW1353 cells were also collected for RT-PCR analysis in the end of the second testing.
Total RNAs were isolated from the cultured human cells using NucleoSpin RNAII Kit (Macherey-Nagel Inc., PA, USA). Five μg of RNA was reverse transcribed in a total 20 μl transcription mixture. The reaction tube containing primers (oligo(dT)), RNA, 10 mM dNTP Mix, and DEPC-treated water was first incubated at 65° C. for 5 minutes. Eight μl master reaction mixture containing 4 μl 5× cDNA synthesis Buffer, 1 μl 0.1 M DTT, 1 μl RNase OUT™ (40U/μl), 1 μl DEPC-Treated water, and 1 μl SuperScript™II was then added into the reaction tube. The reaction tube was then incubated at 50° C. for 60 minutes, followed by incubation at 85° C. for 5 minutes. Finally, 1 μl RNase H was added at 37° C. and the reaction tube was incubated for 20 minutes. The resulting cDNA was further amplified by PCR. The relevant primers for the following PCR reaction were listed below.
(i) The MMP1 forward primer is 5′-ACTCTGGAGTAATGTCACACCT-3′ (SEQ ID NO: 1), and the MMP1 reverse primer is 5′-GTTGGTCCACCTTTCATCTTCA-3′ (SEQ ID NO: 2);
In addition, the PCR reaction of MMP1 cDNA was preformed as follows: 95° C. for 5 min, followed by 35 cycles of 94° C. for 30 sec, 60° C. for 30 sec, and 72° C. for 30 sec, and then 72° C. for 10 min followed by maintaining at 4° C. Similarly, the PCR reaction of TIMP1 cDNA was performed as follows: 94° C. for 5 min, followed by 35 cycles of 94° C. for 30 sec, 60° C. for 30 sec, and 72° C. for 30 sec, and then 72° C. for 10 min followed by maintaining at 4° C. The PCR reaction of GAPDH cDNA was performed as follows: 94° C. for 5 min, followed by 18 cycles of 94° C. for 30 sec, 54° C. for 30 sec, and 72° C. for 30 sec, and then 72° C. for 30 sec followed by maintaining at 4° C. These PCR products were analyzed by electrophoresis on a 1.5% gel.

CC(C)(O)[C@@H]1CC[C@](C)([C@H]2[C@@H](O)C[C@@]3(C)[C@@H]4C[C@H](O[C@@H]5O[C@H](CO)[C@@H](O)[C@H](O)[C@H]5O)[C@H]5C(C)(C)[C@@H](O[C@@H]6OC[C@@H](O)[C@H](O)[C@H]6O)CC[C@@]56C[C@@]46CC[C@]23C)O1 [AS4, Astragaloside IV]
MMP1 mRNA expression after AS4 treatment followed by PMA (AS4 0.01 μM 24 h): 0.98
MMP1 mRNA expression after only AS4 treatment (AS4 0.01 μM): 0.97
MMP1 mRNA expression after AS4 treatment followed by PMA (AS4 0.1 μM 24 h): 0.84
MMP1 mRNA expression after only AS4 treatment (AS4 0.1 μM): 1.07
MMP1 mRNA expression after AS4 treatment followed by PMA (AS4 1 μM 24 h): 0.53
MMP1 mRNA expression after only AS4 treatment (AS4 1 μM): 0.93
